# Measured values: PubChem BioAssay AID602210 (Sanford-Burnham Center for Chemical Genomics, 2012)
# Active and inactive are the calls of the source. How the calls were made is not given here.
# Experiment: modulators of 2-deoxyglucose-induced H9c2 death, dose response, myocardial damage modulator project, cell-based, ATPlite luminescence, rat, set 2 (AID 602210)
# Conditions: H9c2 rat cardiomyoblasts, 2-deoxyglucose-induced death, 2 h
row,Structure (SMILES),IC50
1,CCN(CC)C(=O)c1ccc2c3c(cccc13)C(=O)N(CCc1ccc(OC)c(OC)c1)C2=O,25 µM (inactive)
2,COc1cccc(-c2cnc3c(NC=O)cc(-c4ccc(O)c(OC)c4)cn23)c1,8.51 µM
3,COc1ccc(Nc2nnc(SCc3cc(=O)n4ccsc4n3)s2)cc1,21.7 µM (inactive)
4,O=C(Nc1cccc(NC(=O)c2ccc([N+](=O)[O-])o2)c1)c1ccco1,3.85 µM
5,COc1cc(-c2cnc3c(NC=O)cc(-c4cccnc4)cn23)cc(OC)c1OC,36.2 µM (inactive)
6,C[C@@H]1ON(C)[C@H]2C[C@H]3c4[nH]c5ccc(-c6ccc7c(c6)OCO7)cc5c4CCN3C[C@@H]12,> 79 µM (inactive)
7,CCC(C)N1C(=O)S/C(=C/c2ccc3c(c2)n(C)c(=O)n3C)C1=O (stereo not given),> 79 µM (inactive)
8,O=C(CSc1ccc2nnc(-c3ccc(F)cc3)n2n1)N1CCCc2ccccc21,16.8 µM (inactive)
9,COc1cc2c(C#CCCCO)c(-c3ccsc3)oc(=O)c2cc1OC,5.66 µM
10,COCc1c(C(=O)Nc2ccc3nc(N4CCOCC4)sc3c2)oc2ccccc12,15 µM (inactive)
11,CC(C)(C)OC(=O)C[C@@H]1C/C=C\C[C@@H](CC(=O)N[C@@H](CO)Cc2ccccc2)C(=O)NC[C@@H](c2ccccc2)OC1=O,22.6 µM (inactive)
12,COc1ccccc1NC(=O)COc1ccc(/C=N/NC(=O)c2cccnc2)cc1,21.1 µM (inactive)
13,CCCN1C(=O)c2cc(C(=O)Nc3cccc(C(C)=O)c3)ccc2C1Nc1cccc(C(C)=O)c1 (stereo not given),13.7 µM (inactive)
14,CC(C)(C)OC(=O)C[C@H]1C/C=C\C[C@H](CC(=O)N[C@H](CO)Cc2ccccc2)C(=O)N[C@H](Cc2ccccc2)COC1=O,59.9 µM (inactive)
15,CN(C)S(=O)(=O)c1ccc2[nH]cc(/C=C/c3nc4ccccc4c(=O)n3-c3ccccc3)c2c1,4.24 µM
16,O=C(Nc1nc(-c2cc(F)ccc2F)cs1)C1=NN(c2ccccc2)C(=O)CC1,14.2 µM (inactive)
17,COc1cc(-c2cc(NC(C)=O)c3ncc(-c4ccc(F)cc4)n3c2)cc(OC)c1OC,8.78 µM
18,CC(C)(C)NC(=O)c1cc(NC(=O)c2cccs2)cc(NC(=O)c2cccs2)c1,15.7 µM (inactive)
19,COc1cc(OC)cc(C(=O)Nc2ccc(-c3nc4ccccc4o3)cc2)c1,13.7 µM (inactive)
20,CCn1c(O)c(/C=N/N=C/c2ccccc2)c2ccc(C3=NNC(=O)CC3)cc21,10.7 µM (inactive)
21,COc1ccc(-c2cc(NC(C)=O)c3ncc(-c4ccc(OC)c(OC)c4)n3c2)cc1OC,14.8 µM (inactive)
22,COc1cc(/C=C/c2nnc3c4ccccc4ncn23)cc(OC)c1OC,7.24 µM
23,COCCn1ccc2c(OCC(=O)Nc3ccccc3OC)cccc2c1=O,22.1 µM (inactive)

row,Structure (SMILES),IC50
1,COc1cc(-c2cc(NC=O)c3ncc(-c4ccccc4)n3c2)cc(OC)c1OC,> 79 µM (inactive)
2,COc1ccc2occ(C(=O)c3coc4ccc(O)c(CN(C)C)c34)c2c1,68 µM (inactive)
3,COC(=O)c1ccccc1NC(=O)c1nc2nc(C)cc(C)n2n1,67.2 µM (inactive)
4,COc1ccc(OC)c(NC(=O)COC(=O)c2c3c(nc4ccccc24)CCCC3)c1,7.78 µM
5,CCN(CC)C(=O)c1ccc(-c2nnc(Nc3ccc(O)cc3)c3ccccc23)cc1,44.2 µM (inactive)
6,COc1cccc(Nc2nc3ccccc3n3cnnc23)c1,17.5 µM (inactive)
7,O=C(NCCN1CCN(c2ccccc2F)CC1)c1cccn2c(=O)c3ccccc3nc12,11.7 µM (inactive)
8,CCCC(=O)Nc1nc2ccc(NC(=O)c3ccc(Br)o3)cc2s1,> 79 µM (inactive)
9,CCC(=O)Nc1cccc(-c2nnc(-c3cccc(NC(=O)CC)c3)o2)c1,> 79 µM (inactive)
10,COc1cc2[nH]c(=O)n3nc(-c4ccccc4)nc3c2cc1OC,12.1 µM (inactive)
11,Brc1ccc(-c2ccc(/C=N/Nc3nc(N4CCOCC4)nc(N4CCOCC4)n3)o2)cc1,5.7 µM
12,COc1cccc2cc(-c3cc(=O)oc4ccc(OCC(C)=O)cc34)oc12,> 79 µM (inactive)
13,CCn1nc(C(=O)NNC(=O)c2cc(Cl)ccc2OC)c2ccccc2c1=O,> 79 µM (inactive)
14,Cc1ccc(C(C(=O)NCc2ccccc2)N(Cc2ccco2)C(=O)c2snc(C(N)=O)c2N)o1 (stereo not given),8.59 µM
15,CCC(Oc1ccccc1)C(=O)Nc1ccccc1C(=O)N1CCCCC1 (stereo not given),36.4 µM (inactive)
16,Cc1cc(C)cc(OCC(=O)Nc2cccc(-c3nc4ncccc4o3)c2)c1,14.3 µM (inactive)
17,CC(C)(C)OC(=O)N1CCC[C@H]1c1nnc(SCC(=O)Nc2ccc(Br)cc2)o1,19.8 µM (inactive)
18,COc1cc(OC)cc(-c2cc3nc(C)c(CCC(=O)Nc4nc(C)cs4)c(C)n3n2)c1,6.24 µM
19,NC(=O)c1nsc(C(=O)N(Cc2ccco2)C(C(=O)NCc2ccccc2)c2ccc(O)cc2)c1N (stereo not given),14.9 µM (inactive)
20,COc1ccc(-c2cc3nc(-c4ccccc4)cc(N4CCN(C(=O)c5ccoc5)CC4)n3n2)cc1,7.21 µM
21,CC(C)c1cc(N2CCN(C(=O)c3ccco3)CC2)n2c(nc3ccccc32)c1C#N,44.7 µM (inactive)
22,Cn1c(-n2c(CCCN3C(=O)c4ccccc4C3=O)nc3ccccc3c2=O)nc2ccccc21,> 79 µM (inactive)
